# Where “and” joins values, the source holds several entries; their conditions need not be identical. Identical values can stand only once. Like-named read-outs stand apart in the source and are kept apart here.
# Assay: Pharmacokinetics in CD-1 mice (plasma concentrations, PK parameters)
# Format: in vivo
# Settings: for concentration at 5 min / concentration at 0.5 h / concentration at 1 h / concentration at 2 h / concentration at 4 h / concentration at 24 h / concentration at 6 h: read-out: Concentration; for AUC(0-inf): read-out: AUCInf; for AUC(0-t): read-out: AUClast; for MRT inf: read-out: MRTInf_obs
# Protocol: Pharmacokinetics for I-127, I-172 and I-210 were determined in Sprague Dawley rats or CD-1 mice by dosing intravenous (IV), subcutaneous (SC) or per oral (PO) using facility SOPs and sampling plasma at required time points. Species, formulation, route of administration and time points samples are listed below for each compound.
# Compounds were extracted from plasma, injected on reverse phase HPLC, eluted with a gradient from 5% to 95% acetonitrile in water and quantified by mass spectrometry with internal standard. Data are expressed in ng compound per mL of plasma.
# [1] = CD-1, mouse, plasma, iv, 2 mg/kg, mouse (CD1) iv 2 mg/kg, Mean
# [2] = CD-1, mouse, plasma, iv, 2 mg/kg, mouse (CD1) iv 2 mg/kg, individual Mouse 1-3
# [3] = CD-1, mouse, plasma, sc, 30 mg/kg, mouse (CD1) sc 30 mg/kg, Mean
# [4] = CD-1, mouse, plasma, sc, 30 mg/kg, mouse (CD1) sc 30 mg/kg, individual Mouse 7-9
# [5] = mouse (CD1) iv 2 mg/kg, individual Mouse 1-3, 2 mg/kg
# [6] = mouse (CD1) sc 30 mg/kg, individual Mouse 7-9, 30 mg/kg
smiles,measurement,setting,value
"NC(=O)c1nn(-c2ccc(C(=O)NCCCCCNCCNc3cccc4c3C(=O)N(C3CCC(=O)NC3=O)C4=O)cc2)cc1NC(=O)c1coc(-c2ccnc(NCC(F)(F)F)c2)n1 (stereo not shown) [I-172, N-[3-carbamoyl-1-[4-[5-[2-[[2-(2,6-dioxo-3-piperidyl)-1,3-dioxo-isoindolin-4-yl]amino]ethylamino]pentylcarbamoyl]phenyl]pyrazol-4-yl]-2-[2-(2,2,2-trifluoroethylamino)-4-pyridyl]oxazole-4-carboxamide]",concentration at 5 min,"CD-1, mouse, plasma, iv, 2 mg/kg, mouse (CD1) iv 2 mg/kg, 5 min, Mean",3420 ng/mL
same,concentration at 5 min,"CD-1, mouse, plasma, iv, 2 mg/kg, mouse (CD1) iv 2 mg/kg, 5 min, individual Mouse 1-3",4150 ng/mL
same,concentration at 0.25 h,"CD-1, mouse, plasma, iv, 2 mg/kg, mouse (CD1) iv 2 mg/kg, 0.25 h, Mean",387 ng/mL
same,concentration at 0.25 h,"CD-1, mouse, plasma, iv, 2 mg/kg, mouse (CD1) iv 2 mg/kg, 0.25 h, individual Mouse 1-3",444 ng/mL
same,concentration at 0.5 h,"CD-1, mouse, plasma, iv, 2 mg/kg, mouse (CD1) iv 2 mg/kg, 0.5 h, Mean",123 ng/mL
same,concentration at 0.5 h,"CD-1, mouse, plasma, iv, 2 mg/kg, mouse (CD1) iv 2 mg/kg, 0.5 h, individual Mouse 1-3",130 ng/mL
same,concentration at 1 h,"CD-1, mouse, plasma, iv, 2 mg/kg, mouse (CD1) iv 2 mg/kg, 1 h, Mean",34.7 ng/mL
same,concentration at 1 h,"CD-1, mouse, plasma, iv, 2 mg/kg, mouse (CD1) iv 2 mg/kg, 1 h, individual Mouse 1-3",34.3 ng/mL
same,concentration at 2 h,"CD-1, mouse, plasma, iv, 2 mg/kg, mouse (CD1) iv 2 mg/kg, 2 h, Mean",12.6 ng/mL
same,concentration at 2 h,"CD-1, mouse, plasma, iv, 2 mg/kg, mouse (CD1) iv 2 mg/kg, 2 h, individual Mouse 1-3",11.5 ng/mL
same,concentration at 4 h,"CD-1, mouse, plasma, iv, 2 mg/kg, mouse (CD1) iv 2 mg/kg, 4 h, Mean",7.77 ng/mL
same,concentration at 4 h,"CD-1, mouse, plasma, iv, 2 mg/kg, mouse (CD1) iv 2 mg/kg, 4 h, individual Mouse 1-3",9.04 ng/mL
same,concentration at 8 h,"CD-1, mouse, plasma, iv, 2 mg/kg, mouse (CD1) iv 2 mg/kg, 8 h, Mean",2.46 ng/mL
same,concentration at 8 h,"CD-1, mouse, plasma, iv, 2 mg/kg, mouse (CD1) iv 2 mg/kg, 8 h, individual Mouse 1-3",2.62 ng/mL
same,concentration at 24 h,"CD-1, mouse, plasma, iv, 2 mg/kg, mouse (CD1) iv 2 mg/kg, 24 h, individual Mouse 1-3",2.55 ng/mL
same,half-life,[1],2.53 h
same,AUC(0-inf),[1],1070 ng·h/mL
same,AUC(0-t),[1],1060 ng·h/mL
same,C0,"CD-1, mouse, plasma, iv, 2 mg/kg, mouse (CD1) iv 2 mg/kg, Mean, read-out: C0",10200 ng/mL
same,MRT inf,[1],0.61 h
same,half-life,[2],2.71 h
same,AUC(0-inf),[2],1270 ng·h/mL
same,AUC(0-t),[2],1260 ng·h/mL
same,C0,"CD-1, mouse, plasma, iv, 2 mg/kg, mouse (CD1) iv 2 mg/kg, individual Mouse 1-3, read-out: C0",12700 ng/mL
same,concentration at 0.25 h,"CD-1, mouse, plasma, sc, 30 mg/kg, mouse (CD1) sc 30 mg/kg, 0.25 h, Mean",43.1 ng/mL
same,concentration at 0.25 h,"CD-1, mouse, plasma, sc, 30 mg/kg, mouse (CD1) sc 30 mg/kg, 0.25 h, individual Mouse 7-9",34.6 ng/mL
same,concentration at 0.5 h,"CD-1, mouse, plasma, sc, 30 mg/kg, mouse (CD1) sc 30 mg/kg, 0.5 h, Mean",64.8 ng/mL
same,concentration at 0.5 h,"CD-1, mouse, plasma, sc, 30 mg/kg, mouse (CD1) sc 30 mg/kg, 0.5 h, individual Mouse 7-9",71.9 ng/mL
same,concentration at 1 h,"CD-1, mouse, plasma, sc, 30 mg/kg, mouse (CD1) sc 30 mg/kg, 1 h, Mean",64.8 ng/mL
same,concentration at 1 h,"CD-1, mouse, plasma, sc, 30 mg/kg, mouse (CD1) sc 30 mg/kg, 1 h, individual Mouse 7-9",52.6 ng/mL
same,concentration at 2 h,"CD-1, mouse, plasma, sc, 30 mg/kg, mouse (CD1) sc 30 mg/kg, 2 h, Mean",50.8 ng/mL
same,concentration at 2 h,"CD-1, mouse, plasma, sc, 30 mg/kg, mouse (CD1) sc 30 mg/kg, 2 h, individual Mouse 7-9",48 ng/mL
same,concentration at 4 h,"CD-1, mouse, plasma, sc, 30 mg/kg, mouse (CD1) sc 30 mg/kg, 4 h, Mean",37.3 ng/mL
same,concentration at 4 h,"CD-1, mouse, plasma, sc, 30 mg/kg, mouse (CD1) sc 30 mg/kg, 4 h, individual Mouse 7-9",33.3 ng/mL
same,concentration at 6 h,"CD-1, mouse, plasma, sc, 30 mg/kg, mouse (CD1) sc 30 mg/kg, 6 h, Mean",19.4 ng/mL
same,concentration at 6 h,"CD-1, mouse, plasma, sc, 30 mg/kg, mouse (CD1) sc 30 mg/kg, 6 h, individual Mouse 7-9",16 ng/mL
same,concentration at 24 h,"CD-1, mouse, plasma, sc, 30 mg/kg, mouse (CD1) sc 30 mg/kg, 24 h, Mean",5.33 ng/mL
same,concentration at 24 h,"CD-1, mouse, plasma, sc, 30 mg/kg, mouse (CD1) sc 30 mg/kg, 24 h, individual Mouse 7-9",5.4 ng/mL
same,half-life,[3],8 h
same,AUC(0-inf),[3],538 ng·h/mL
same,AUC(0-t),[3],476 ng·h/mL
same,Cmax,"CD-1, mouse, plasma, sc, 30 mg/kg, mouse (CD1) sc 30 mg/kg, Mean, read-out: Cmax",71.2 ng/mL
same,MRT inf,[3],9.4 h
same,Tmax,"CD-1, mouse, plasma, sc, 30 mg/kg, mouse (CD1) sc 30 mg/kg, Mean, read-out: Tmax",0.833 h
same,half-life,[4],8.79 h
same,AUC(0-inf),[4],491 ng·h/mL
same,AUC(0-t),[4],422 ng·h/mL
same,Cmax,"CD-1, mouse, plasma, sc, 30 mg/kg, mouse (CD1) sc 30 mg/kg, individual Mouse 7-9, read-out: Cmax",71.9 ng/mL
same,MRT inf,[4],10.4 h
same,Tmax,"CD-1, mouse, plasma, sc, 30 mg/kg, mouse (CD1) sc 30 mg/kg, individual Mouse 7-9, read-out: Tmax",0.5 h
same,Concentration,"mouse (CD1) iv 2 mg/kg, 5 min, individual Mouse 1-3, 2 mg/kg",2810 ng/mL and 3290 ng/mL
same,Concentration,"mouse (CD1) iv 2 mg/kg, 0.25 h, individual Mouse 1-3, 2 mg/kg",314 ng/mL and 404 ng/mL
same,Concentration,"mouse (CD1) iv 2 mg/kg, 0.5 h, individual Mouse 1-3, 2 mg/kg",102 ng/mL and 136 ng/mL
same,Concentration,"mouse (CD1) iv 2 mg/kg, 1 h, individual Mouse 1-3, 2 mg/kg",31.5 ng/mL and 38.2 ng/mL
same,Concentration,"mouse (CD1) iv 2 mg/kg, 2 h, individual Mouse 1-3, 2 mg/kg",11.7 ng/mL and 14.6 ng/mL
same,Concentration,"mouse (CD1) iv 2 mg/kg, 4 h, individual Mouse 1-3, 2 mg/kg",6.56 ng/mL and 7.70 ng/mL
same,Concentration,"mouse (CD1) iv 2 mg/kg, 8 h, individual Mouse 1-3, 2 mg/kg",2.07 ng/mL and 2.69 ng/mL
same,Concentration,"mouse (CD1) iv 2 mg/kg, 24 h, individual Mouse 1-3, 2 mg/kg",BLOQ
same,AUC_%Extrap_obs,"mouse (CD1) iv 2 mg/kg, Mean",0.826%
same,AUClast/D,"mouse (CD1) iv 2 mg/kg, Mean",532 h·ng/mL per mg/kg
same,Cl_obs,"mouse (CD1) iv 2 mg/kg, Mean",31.8 mL/min/kg
same,Vss_obs,"mouse (CD1) iv 2 mg/kg, Mean",1.15 L/kg
same,AUCInf,[5],877 ng·h/mL and 1067 ng·h/mL
same,AUC_%Extrap_obs,[5],0.805% and 0.818% and 0.856%
same,AUClast,[5],870 ng·h/mL and 1058 ng·h/mL
same,AUClast/D,[5],632 h·ng/mL per mg/kg and 435 h·ng/mL per mg/kg and 529 h·ng/mL per mg/kg
same,C0,[5],8401 ng/mL and 9383 ng/mL
same,Cl_obs,[5],26.2 mL/min/kg and 38.0 mL/min/kg and 31.2 mL/min/kg
same,MRTInf_obs,[5],0.332 h and 0.362 h and 1.13 h
same,T1/2,[5],2.40 h and 2.48 h
same,Vss_obs,[5],0.522 L/kg and 0.826 L/kg and 2.11 L/kg
same,Concentration,"mouse (CD1) po 30 mg/kg, 0.25 h, individual Mouse 4-6",BLOQ
same,Concentration,"mouse (CD1) po 30 mg/kg, 0.5 h, individual Mouse 4-6",BLOQ
same,Concentration,"mouse (CD1) po 30 mg/kg, 1 h, individual Mouse 4-6",BLOQ
same,Concentration,"mouse (CD1) po 30 mg/kg, 2 h, individual Mouse 4-6",BLOQ
same,Concentration,"mouse (CD1) po 30 mg/kg, 4 h, individual Mouse 4-6",BLOQ
same,Concentration,"mouse (CD1) po 30 mg/kg, 8 h, individual Mouse 4-6",BLOQ
same,Concentration,"mouse (CD1) po 30 mg/kg, 24 h, individual Mouse 4-6",BLOQ
same,Concentration,"mouse (CD1) sc 30 mg/kg, 0.25 h, individual Mouse 7-9, 30 mg/kg",40.0 ng/mL and 54.6 ng/mL
same,Concentration,"mouse (CD1) sc 30 mg/kg, 0.5 h, individual Mouse 7-9, 30 mg/kg",57.6 ng/mL and 64.8 ng/mL
same,Concentration,"mouse (CD1) sc 30 mg/kg, 1 h, individual Mouse 7-9, 30 mg/kg",63.0 ng/mL and 78.7 ng/mL
same,Concentration,"mouse (CD1) sc 30 mg/kg, 2 h, individual Mouse 7-9, 30 mg/kg",46.5 ng/mL and 58.0 ng/mL
same,Concentration,"mouse (CD1) sc 30 mg/kg, 4 h, individual Mouse 7-9, 30 mg/kg",37.0 ng/mL and 41.6 ng/mL
same,Concentration,"mouse (CD1) sc 30 mg/kg, 6 h, individual Mouse 7-9, 30 mg/kg",20.7 ng/mL and 21.5 ng/mL
same,Concentration,"mouse (CD1) sc 30 mg/kg, 24 h, individual Mouse 7-9, 30 mg/kg",4.74 ng/mL and 5.85 ng/mL
same,AUC_%Extrap_obs,"mouse (CD1) sc 30 mg/kg, Mean",11.5%
same,AUClast/D,"mouse (CD1) sc 30 mg/kg, Mean",15.9 h·ng/mL per mg/kg
same,F,"mouse (CD1) sc 30 mg/kg, Mean",3.34%
same,AUCInf,[6],522 ng·h/mL and 601 ng·h/mL
same,AUC_%Extrap_obs,[6],14.0% and 9.60% and 11.1%
same,AUClast,[6],472 ng·h/mL and 535 ng·h/mL
same,AUClast/D,[6],14.1 h·ng/mL per mg/kg and 15.7 h·ng/mL per mg/kg and 17.8 h·ng/mL per mg/kg
same,Cmax,[6],63.0 ng/mL and 78.7 ng/mL
same,F,[6],3.05% and 3.25% and 3.74%
same,MRTInf_obs,[6],8.61 h and 9.13 h
same,T1/2,[6],7.34 h and 7.89 h
same,Tmax,[6],1 h
